Columns and labels:
human EAAT3 = molecular target: T1, human EAAT3 (Homo sapiens, UniProt P43005); test: FLIPR Membrane Potential (FMP) assay; format: cell-based; details: HEK-293 cells stably expressing human EAAT3; antagonist applied 15 min before L-glutamate at EC80; Kb by Cheng-Prusoff from IC50
T1 construct: expressed in transfected cells
T1 sequence (P43005 1-524): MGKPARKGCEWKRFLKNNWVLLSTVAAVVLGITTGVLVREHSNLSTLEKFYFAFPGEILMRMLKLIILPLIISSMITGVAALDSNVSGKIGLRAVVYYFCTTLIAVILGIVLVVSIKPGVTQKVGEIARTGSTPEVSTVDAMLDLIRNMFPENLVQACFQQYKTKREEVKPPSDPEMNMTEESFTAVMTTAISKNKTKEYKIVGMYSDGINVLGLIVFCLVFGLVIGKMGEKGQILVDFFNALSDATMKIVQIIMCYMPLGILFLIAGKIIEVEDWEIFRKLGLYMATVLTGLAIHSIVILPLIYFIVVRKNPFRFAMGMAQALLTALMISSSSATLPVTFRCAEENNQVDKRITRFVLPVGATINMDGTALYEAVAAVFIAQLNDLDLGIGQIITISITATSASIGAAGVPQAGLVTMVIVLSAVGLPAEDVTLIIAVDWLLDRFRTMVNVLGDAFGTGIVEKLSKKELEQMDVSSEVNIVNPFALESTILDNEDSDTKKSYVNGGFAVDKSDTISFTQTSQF
Description: The FLIPR Membrane Potential (FMP) Assay
HEK-293 cells stably expressing human EAAT3 were seeded at 55 000 cells/well in growth medium (DMEM glutamate free (Invitrogen 11960-044), 1% Pen Strep (10 ml/l GIBCO BRL No 15140-023), 10% FCS non dialysed heat inactivated, 5 mg/l puromycin) in poly-D-lysine treated 96-well black microtiter plates with clear-bottom. After 24 h, the growth medium was removed and 100 μl/well of Krebs buffer (140 mM NaCl, 4.7 mM KCl, 2.5 mM CaCl2, 1.2 mM MgCl2, 11 mM HEPES, 10 mM D-glucose, pH=7.4) added. The cells were then loaded by adding 100 μl/well FMP assay dye (FLIPR Membrane Potential assay reagent, Molecular Devices). The 96-well plates were then incubated at 37° C. for 1 h. The depolarization of the cells will cause more dye to enter in the cells, where it will bind to intracellular proteins and lipids and cause an increase in the fluorescence signal. Antagonist potency at human EAAT3 was determined by using L-glutamate as agonist at a concentration which gives 80% of the maximum response. The antagonists were applied 15 min before the application of the agonist L-glutamate. The assays were performed at room temperature and measurements done by using a Fluorometric Imaging Plate Reader (FLIPR, Molecular Devices) and filter #2. Responses were measured as peak increase in fluorescence minus basal (i.e. fluorescence without addition of L-glutamate). Kb was determined using the Cheng-Prusoff equation Kb=IC50/[1+(A/EC50)], where IC50 is the concentration of the antagonist producing 50% inhibition, A is the concentration of the agonist against which the IC50 is being determined (at EC80) and EC50 is the concentration of the agonist producing 50% […].

Structure (SMILES) | melting point | Kb (human EAAT3)
CC(C)(C)NC(=O)c1cc(-c2ccc(F)c(F)c2)cc(-n2nnnc2C(C)(C)C)c1 [Example 106, N-tert-Butyl-3-(5-tert-butyltetrazol-1-yl)-5-(3,4-difluorophenyl)-benzamide] | 225.5 °C | 260 nM
CC1(NC(=O)c2cc(-c3ccc(F)cc3)cc(-n3nnnc3C3CC3)c2)CCS(=O)(=O)C1 (racemic) [Example 77, (RS)-3-(5-Cyclopropyltetrazol-1-yl)-5-(4-fluorophenyl)-N-(3-methyl-1,1-dioxothiolan-3-yl)-benzamide] | 120 °C | 250 nM
CC(C)(C#N)NC(=O)c1cc(-c2ccc(Cl)c(F)c2)cc(-n2nnnc2C(C)(C)C)c1 [Example 121, 3-(5-tert-Butyltetrazol-1-yl)-5-(4-chloro-3-fluorophenyl)-N-(2-cyanopropan-2-yl)-benzamide] | 261.5 °C | 210 nM
Cc1nnnn1-c1cc(C(=O)NC2(C)CCS(=O)(=O)C2)cc(-c2ccc(F)cc2)c1 (racemic) [Example 87, (RS)-3-(4-Fluorophenyl)-N-(3-methyl-1,1-dioxothiolan-3-yl)-5-(5-methyltetrazol-1-yl)-benzamide] | 117 °C | 290 nM
CCc1nnnn1-c1cc(C(=O)NC2(C)CCS(=O)(=O)C2)cc(-c2ccc(C)cc2)c1 (racemic) [Example 34, (RS)-3-(5-Ethyltetrazol-1-yl)-N-(3-methyl-1,1-dioxothiolan-3-yl)-5-(4-methylphenyl)-benzamide] | 122 °C | 270 nM
CC(C)(NC(=O)c1cc(-c2ccc(F)cc2)cc(-n2cnnn2)c1)C1CC1 [Example 21, N-(2-cyclopropylpropan-2-yl)-3-(4-fluorophenyl)-5-(tetrazol-1-yl)-benzamide] | 193 °C | 960 nM
CCC(C)(C)NC(=O)c1cc(-c2ccc(C(F)(F)F)cc2)cc(-n2cnnn2)c1 [Example 2, N-(2-Methylbutan-2-yl)-3-(tetrazol-1-yl)-5-[4-(trifluoromethyl)phenyl]-benzamide] | 168 °C | 220 nM
Cc1nnnn1-c1cc(C(=O)NC2(C)CCS(=O)(=O)C2)cc(-c2ccc(Cl)cc2)c1 (racemic) [Example 65, (RS)-3-(4-Chlorophenyl)-N-(3-methyl-1,1-dioxothiolan-3-yl)-5-(5-methyltetrazol-1-yl)-benzamide] | 155.5 °C | 360 nM
CCc1nnnn1-c1cc(C(=O)NC(C)(C)C)cc(-c2ccc(C)cc2)c1 [Example 30, N-tert-Butyl-3-(5-ethyltetrazol-1-yl)-5-(4-methylphenyl)-benzamide] | 73 °C | 210 nM
CCC(C)(C)NC(=O)c1cc(-c2ccc(Cl)c(Cl)c2)cc(-n2cnnn2)c1 [Example 38, 3-(3,4-Dichlorophenyl)-N-(2-methylbutan-2-yl)-5-(tetrazol-1-yl)-benzamide] | 206 °C | 700 nM
CCC(C)(C)NC(=O)c1cc(-c2ccc(F)cc2)cc(-n2nnnc2C)c1 [Example 78, 3-(4-Fluorophenyl)-N-(2-methylbutan-2-yl)-5-(5-methyltetrazol-1-yl)-benzamide] | 83 °C | 110 nM
Cc1ccc(-c2cc(C(=O)NC(C)(C)C)cc(-n3nnnc3C(C)(C)C)c2)cc1F [Example 108, N-tert-Butyl-3-(5-tert-butyltetrazol-1-yl)-5-(3-fluoro-4-methylphenyl)-benzamide] | 227.5 °C | 420 nM
CC(C)(C#N)NC(=O)c1cc(-c2ccc(F)cc2)cc(-n2nnnc2C(C)(C)C)c1 [Example 100, 3-(5-tert-Butyltetrazol-1-yl)-N-(2-cyanopropan-2-yl)-5-(4-fluorophenyl)-benzamide] | 115 °C | 230 nM

The next lines start with the values.

melting point | Kb (human EAAT3) | Structure (SMILES)
241 °C | 190 nM | CC(C)(C)NC(=O)c1cc(-c2ccc(C(F)(F)F)cc2)cc(-n2nnnc2C(C)(C)C)c1 [Example 104, N-tert-Butyl-3-(5-tert-butyltetrazol-1-yl)-5-[4-(trifluoromethyl)-phenyl]-benzamide]
90 °C | 340 nM | CC(C)c1nnnn1-c1cc(C(=O)NC(C)(C)C(F)(F)F)cc(-c2ccc(Cl)cc2)c1 [Example 52, 3-(4-Chlorophenyl)-5-(5-propan-2-yltetrazol-1-yl)-N-(1,1,1-trifluoro-2-methylpropan-2-yl)-benzamide]
101 °C | 300 nM | CC(C)(C)c1nnnn1-c1cc(C(=O)NC(C)(C)C2CC2)cc(-c2ccc(Cl)cc2)c1 [Example 92, 3-(5-tert-Butyltetrazol-1-yl)-5-(4-chlorophenyl)-N-(2-cyclopropylpropan-2-yl)-benzamide]
115 °C | 280 nM | CC(C)(C)NC(=O)c1cc(-c2ccc(C3CC3)cc2)cc(-n2nnnc2C(C)(C)C)c1 [Example 107, N-tert-Butyl-3-(5-tert-butyltetrazol-1-yl)-5-(4-cyclopropylphenyl)-benzamide]
90 °C | 350 nM | CC(C)(C)c1nnnn1-c1cc(C(=O)NC(C)(C)C2CC2)cc(-c2ccc(F)c(F)c2)c1 [Example 113, 3-(5-tert-Butyltetrazol-1-yl)-N-(2-cyclopropylpropan-2-yl)-5-(3,4-difluorophenyl)-benzamide]
74.5 °C | 450 nM | Cc1ccc(-c2cc(C(=O)NC(C)(C)C3CC3)cc(-n3nnnc3C3CC3)c2)cc1 [Example 35, N-(2-Cyclopropylpropan-2-yl)-3-(5-cyclopropyltetrazol-1-yl)-5-(4-methylphenyl)-benzamide]
112 °C | 150 nM | CC(C)(CO)NC(=O)c1cc(-c2ccc(Cl)cc2)cc(-n2nnnc2C(C)(C)C)c1 [Example 88, 3-(5-tert-Butyltetrazol-1-yl)-5-(4-chlorophenyl)-N-(1-hydroxy-2-methylpropan-2-yl)-benzamide]
81 °C | 110 nM | CC(C)(NC(=O)c1cc(-c2ccc(F)cc2)cc(-n2nnnc2C2CC2)c1)C(F)(F)F [Example 73, 3-(5-Cyclopropyltetrazol-1-yl)-5-(4-fluorophenyl)-N-(1,1,1-trifluoro-2-methylpropan-2-yl)-benzamide]
218.5 °C | 260 nM | CC(C)(C)c1nnnn1-c1cc(C(=O)NC(C)(C)C(F)(F)F)cc(-c2ccc(Cl)cc2)c1 [Example 93, 3-(5-tert-Butyltetrazol-1-yl)-5-(4-chlorophenyl)-N-(1,1,1-trifluoro-2-methylpropan-2-yl)-benzamide]
91.5 °C | 210 nM | CC(C)(NC(=O)c1cc(-c2ccc(Cl)cc2)cc(-n2nnnc2C2CC2)c1)C(F)(F)F [Example 54, 3-(4-Chlorophenyl)-5-(5-cyclopropyltetrazol-1-yl)-N-(1,1,1-trifluoro-2-methylpropan-2-yl)-benzamide]
78 °C | 310 nM | Cc1ccc(-c2cc(C(=O)NC(C)(C)C3CC3)cc(-n3nnnc3C(C)C)c2)cc1 [Example 20, N-(2-Cyclopropylpropan-2-yl)-3-(4-methylphenyl)-5-(5-propan-2-yltetrazol-1-yl)-benzamide]
230.5 °C | 87 nM | CC(C)(C)NC(=O)c1cc(-c2ccc(Cl)cc2)cc(-n2nnnc2C(C)(C)C)c1 [Example 91, N-tert-Butyl-3-(5-tert-butyltetrazol-1-yl)-5-(4-chlorophenyl)-benzamide]
108 °C | 550 nM | CC(C)(C)c1nnnn1-c1cc(C(=O)NC(C)(C)C(F)(F)F)cc(-c2ccc(C(F)(F)F)cc2)c1 [Example 116, 3-(5-tert-Butyltetrazol-1-yl)-5-[4-(trifluoromethyl)-phenyl]-N-(1,1,1-trifluoro-2-methylpropan-2-yl)-benzamide]
222 °C | 350 nM | CC(C)(C)c1nnnn1-c1cc(C(=O)NC(C)(C)C(F)(F)F)cc(-c2ccc(Cl)c(F)c2)c1 [Example 119, 3-(5-tert-Butyltetrazol-1-yl)-5-(4-chloro-3-fluorophenyl)-N-(1,1,1-trifluoro-2-methylpropan-2-yl)-benzamide]
